Data from ChEMBL document CHEMBL1201862, “PubChem BioAssay data set” (2004).
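48-hour exposure; five concentrations; linearly interpolated endpoints. GI50: concentration for 50% inhibition of growth.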 The source made the active and inactive calls. Cut-off read from the data, not from the text of the source: active = GI50 up to about 1.1 µM and inactive = higher.

Columns and labels:
Experiment in all cases: NCI anticancer screen, dose series, 48 h
MDA-MB-435 = test system: MDA-MB-435
KM12 = test system: KM12
U-251 = test system: U-251
SR = test system: SR
SK-MEL-5 = test system: SK-MEL-5
DU-145 = test system: DU-145
RPMI-8226 = test system: RPMI-8226
OVCAR-4 = test system: OVCAR-4
MCF7 = test system: MCF7
UACC-257 = test system: UACC-257
NCI-H522 = test system: NCI-H522
EKVX = test system: EKVX
T47D = test system: T47D
OVCAR-5 = test system: OVCAR-5
SK-OV-3 = test system: SK-OV-3
IGROV-1 = test system: IGROV-1
SF-268 = test system: SF-268
NCI-H226 = test system: NCI-H226
TK-10 = test system: TK-10

Measured: GI50

CCCCCCc1cc2cc(C(=O)Nc3ccccc3F)c(=N)oc2cc1O
inactive: MDA-MB-435 3.39 µM | KM12 4.01 µM | U-251 4.81 µM | SR 2.83 µM | SK-MEL-5 3.19 µM | DU-145 9.31 µM | RPMI-8226 3.66 µM | OVCAR-4 4.93 µM | MCF7 3.85 µM | UACC-257 6.64 µM | NCI-H522 2.69 µM | EKVX 10.4 µM | T47D 3.51 µM | OVCAR-5 21.2 µM | SK-OV-3 12.5 µM | IGROV-1 3.34 µM | SF-268 12.4 µM

CCOC(=O)c1c(NC(=O)c2ccc(OC)cc2)sc2c1CCCC2
inactive: MDA-MB-435 > 100 µM | KM12 > 100 µM | U-251 > 100 µM | NCI-H226 > 100 µM | SR > 100 µM | SK-MEL-5 > 100 µM | DU-145 > 100 µM | RPMI-8226 > 100 µM | MCF7 > 100 µM | UACC-257 > 100 µM | EKVX > 100 µM | T47D > 100 µM | OVCAR-5 > 100 µM | TK-10 > 100 µM | IGROV-1 > 100 µM | SF-268 > 100 µM

CCOC(=O)Cc1nc2c(O)ncnc2n1C1OC(COC(C)=O)C(OC(C)=O)C1OC(C)=O (configuration not stated)
inactive: MDA-MB-435 > 100 µM | KM12 > 100 µM | U-251 > 100 µM | NCI-H226 > 100 µM | SK-MEL-5 > 100 µM | DU-145 > 100 µM | RPMI-8226 > 100 µM | OVCAR-4 > 100 µM | MCF7 > 100 µM | UACC-257 > 100 µM | NCI-H522 > 100 µM | EKVX > 100 µM | T47D > 100 µM | OVCAR-5 > 100 µM | TK-10 > 100 µM | SK-OV-3 > 100 µM | IGROV-1 > 100 µM | SF-268 > 100 µM

Cc1cc(=O)n2nc(CSc3nnc(N)s3)sc2n1
inactive: MDA-MB-435 > 100 µM | KM12 > 100 µM | U-251 > 100 µM | NCI-H226 > 100 µM | SK-MEL-5 > 100 µM | DU-145 > 100 µM | RPMI-8226 > 100 µM | OVCAR-4 > 100 µM | MCF7 > 100 µM | UACC-257 > 100 µM | NCI-H522 > 100 µM | EKVX > 100 µM | T47D > 100 µM | OVCAR-5 > 100 µM | TK-10 > 100 µM | SK-OV-3 > 100 µM | IGROV-1 > 100 µM | SF-268 > 100 µM

CC(=O)OCC1OC(SC2=N/C(=C\c3ccc(Br)s3)C(=O)N2CN2CCOCC2)C(OC(C)=O)C(OC(C)=O)C1OC(C)=O (configuration not stated)
inactive: MDA-MB-435 23.8 µM | KM12 17.2 µM | U-251 16.3 µM | NCI-H226 11.3 µM | SR 12.6 µM | SK-MEL-5 19.1 µM | DU-145 16.5 µM | RPMI-8226 5.97 µM | OVCAR-4 29.4 µM | MCF7 15.4 µM | UACC-257 16.6 µM | NCI-H522 6.87 µM | EKVX 8.22 µM | T47D 27.9 µM | OVCAR-5 22.9 µM | TK-10 16.7 µM | IGROV-1 16.8 µM | SF-268 32.8 µM

CCCC(O)c1cn(C(NC(=O)c2ccccc2)P(=O)(OCC)OCC)nn1 (configuration not stated)
inactive: MDA-MB-435 > 100 µM | KM12 > 100 µM | U-251 > 100 µM | NCI-H226 > 100 µM | SR > 100 µM | SK-MEL-5 > 100 µM | DU-145 > 100 µM | RPMI-8226 > 100 µM | OVCAR-4 > 100 µM | MCF7 > 100 µM | UACC-257 > 100 µM | NCI-H522 > 100 µM | EKVX > 100 µM | T47D > 100 µM | TK-10 > 100 µM | IGROV-1 > 100 µM | SF-268 > 100 µM

CCOC(=O)c1cc(C2(O)CCN(Cc3ccccc3)C2=O)c(-c2cc(C)no2)[nH]1 (configuration not stated)
inactive: MDA-MB-435 36.7 µM | KM12 37.8 µM | U-251 44.7 µM | NCI-H226 55.7 µM | SR 27.3 µM | SK-MEL-5 40 µM | DU-145 88.9 µM | RPMI-8226 26.4 µM | OVCAR-4 30.3 µM | MCF7 47.4 µM | UACC-257 75.9 µM | NCI-H522 15.4 µM | EKVX 41.4 µM | T47D 17.9 µM | OVCAR-5 61.4 µM | TK-10 67.1 µM | IGROV-1 46.7 µM | SF-268 > 100 µM

Cc1ccc2nc(Cl)c(/C=N/N3C(=O)/C(=C/c4ccccc4S)N=C3c3ccccc3)cc2c1
inactive: MDA-MB-435 12.6 µM | KM12 25.5 µM | U-251 28.1 µM | SR 7.96 µM | SK-MEL-5 31.6 µM | DU-145 53.3 µM | RPMI-8226 21.4 µM | OVCAR-4 29.6 µM | MCF7 26.9 µM | UACC-257 68.5 µM | EKVX 59.7 µM | T47D 48.5 µM | OVCAR-5 > 100 µM | TK-10 48.6 µM | SK-OV-3 22.2 µM | IGROV-1 29.1 µM | SF-268 36.6 µM

[O-][Cl+3]([O-])([O-])[O-].[O-][Cl+3]([O-])([O-])[O-].c1ccn2c(N3CCOCC3)[n+]3c4ccccc4[n+]4c(N5CCOCC5)n5ccccc5c4c3c2c1
inactive: MDA-MB-435 > 100 µM | KM12 52.1 µM | U-251 50.6 µM | NCI-H226 79.4 µM | SR 41.3 µM | SK-MEL-5 34 µM | DU-145 > 100 µM | RPMI-8226 > 100 µM | OVCAR-4 > 100 µM | MCF7 56.1 µM | UACC-257 68.9 µM | NCI-H522 > 100 µM | EKVX > 100 µM | T47D > 100 µM | OVCAR-5 > 100 µM | TK-10 > 100 µM | IGROV-1 66.2 µM | SF-268 19 µM

O=c1[nH]c(=O)n(COCc2ccccc2)c2ccsc12
inactive: MDA-MB-435 > 100 µM | KM12 > 100 µM | U-251 > 100 µM | NCI-H226 > 100 µM | SR 88.7 µM | SK-MEL-5 > 100 µM | DU-145 > 100 µM | RPMI-8226 > 100 µM | OVCAR-4 > 100 µM | MCF7 > 100 µM | UACC-257 > 100 µM | NCI-H522 > 100 µM | EKVX 22.2 µM | T47D > 100 µM | OVCAR-5 > 100 µM | TK-10 > 100 µM | IGROV-1 > 100 µM | SF-268 > 100 µM

Cc1cc2c(cc1-c1cc3c(cc1C)C(C(C)C)=C(O)C(=O)/C3=C\Nc1ccccn1)/C(=C/Nc1ccccn1)C(=O)C(O)=C2C(C)C
inactive: MDA-MB-435 43.5 µM | KM12 24.5 µM | U-251 34.4 µM | NCI-H226 23 µM | SR 42.7 µM | SK-MEL-5 30.3 µM | DU-145 > 100 µM | RPMI-8226 21.7 µM | OVCAR-4 34.9 µM | MCF7 52.5 µM | UACC-257 > 100 µM | NCI-H522 21.8 µM | EKVX 37.8 µM | T47D > 100 µM | OVCAR-5 > 100 µM | TK-10 > 100 µM | IGROV-1 31.1 µM | SF-268 30.3 µM

COc1ccc(-n2c(=O)n(C)c(=O)n2-c2ccc(OC)cc2)cc1
inactive: MDA-MB-435 > 100 µM | KM12 > 100 µM | U-251 > 100 µM | NCI-H226 > 100 µM | SR > 100 µM | SK-MEL-5 > 100 µM | DU-145 > 100 µM | RPMI-8226 > 100 µM | MCF7 > 100 µM | UACC-257 > 100 µM | EKVX > 100 µM | T47D > 100 µM | OVCAR-5 > 100 µM | TK-10 > 100 µM | SK-OV-3 > 100 µM | IGROV-1 > 100 µM | SF-268 > 100 µM

CC(=O)O[C@H]1CC[C@@]2(C)C(=CC[C@@H]3[C@@H]2CC[C@]2(C)c4c(C)nn(-c5ccccc5)c4C[C@@H]32)C1
inactive: MDA-MB-435 45.7 µM | KM12 23 µM | U-251 20.7 µM | NCI-H226 36.6 µM | SR 13 µM | SK-MEL-5 37.2 µM | DU-145 17 µM | OVCAR-4 72.6 µM | MCF7 32.8 µM | UACC-257 29.9 µM | NCI-H522 13.7 µM | EKVX 14.9 µM | T47D 33 µM | OVCAR-5 22.2 µM | TK-10 22.8 µM | SK-OV-3 20.6 µM | IGROV-1 43.4 µM | SF-268 62.8 µM

CSc1cc(Cl)c(C)cc1S(=O)(=O)NC(=O)NNc1cccc(C(F)(F)F)n1
inactive: MDA-MB-435 > 100 µM | KM12 > 100 µM | U-251 > 100 µM | NCI-H226 > 100 µM | SR > 100 µM | SK-MEL-5 > 100 µM | DU-145 > 100 µM | OVCAR-4 > 100 µM | MCF7 > 100 µM | NCI-H522 > 100 µM | EKVX > 100 µM | T47D > 100 µM | OVCAR-5 > 100 µM | SK-OV-3 > 100 µM | IGROV-1 > 100 µM | SF-268 > 100 µM

O=C(c1cccs1)N1CCc2ccccc2C1
inactive: MDA-MB-435 33.3 µM | KM12 74.8 µM | U-251 > 100 µM | NCI-H226 > 100 µM | SR 97.5 µM | SK-MEL-5 62.4 µM | DU-145 > 100 µM | RPMI-8226 85.9 µM | MCF7 > 100 µM | UACC-257 > 100 µM | NCI-H522 > 100 µM | EKVX 97.1 µM | T47D > 100 µM | OVCAR-5 > 100 µM | TK-10 > 100 µM | SK-OV-3 > 100 µM | IGROV-1 > 100 µM | SF-268 > 100 µM
